The source of these data is patent US20260317344A1, “EGFR INHIBITORS FOR TREATING DISEASE” (BLOSSOMHILL THERAPEUTICS, INC., priority 2023, published 2026).

As a reminder, the IC50 is the midpoint of a concentration-inhibition curve.

Holding throughout (assay type): cell-based
One assay relates to HCC827 cells. The assay can be described thus: 5-Day CellTiter Glo (CTG) cell proliferation assay, HCC827. The following applies: Homo sapiens; HCC827 cells (d746-750 EGFR), 5-day CTG proliferation, 120 hours; read-out: HCC827 IC50. The method, then:
(§1) 5-Day CellTiter Glo (CTG) Cell Proliferation Assays (PC9, H1975, H827)
(§2) Cell proliferation assays were carried out in NSCLC cells with EGFR activation mutations. Both PC-9 cells and HCC827 cells (purchased from DSMZ) carry a Glu746-Ala750 deletion (d746-750) mutation in exon 19 of the EGFR gene and NCI-H1975 cells carry both L858R activation mutation and T790M gatekeeper mutation in the EGFR gene. One thousand PC-9, NCI-H1975 or HCC827 cells/100 μL per well were seeded in 96-well black plate with transparent bottom and then treated with indicated compounds in a 9-dose dilution series dispensed using TECAN d300e liquid dispenser. Cells were incubated with compounds for 120 hours at 37° C. and 5% CO2. Cell proliferation was measured using CellTiter-Glo 2.0 luciferase-based ATP detection assay (Promega, Madison, WI) at […] per well following the manufacturer's protocol. Plates were then read on a TECAN Sparks multimode microplate reader. Data was analyzed using GraphPad Prism 9 (GraphPad Software, San Diego, CA) to obtain IC50 values.
Background: Cellular ATP, detected with luciferase, serves as a proxy for viable cell number.

Another assay deals with PC-9 cells. The assay can be described thus: 5-Day CellTiter Glo (CTG) cell proliferation assay, PC-9. The following applies: Homo sapiens; PC-9 cells (d746-750 EGFR), 5-day CTG proliferation, 120 hours; read-out: PC-9 IC50. On the procedure: as §1, §2
Another assay concerns NCI-H1975 cells. The assay can be described thus: 5-Day CellTiter Glo (CTG) cell proliferation assay, NCI-H1975. The following applies: Homo sapiens; NCI-H1975 cells (L858R/T790M EGFR), 5-day CTG proliferation, 120 hours; read-out: H1975 IC50. On the procedure:
as §1, §2

As to `CCOc1nn([C@@H](C)CO)c2c1/C=C/c1n[nH]c3c(OC)nc(cc13)-c1c(C)nn(C)c1O[C@@H](C)CN(C)C2` [Ex. 96, (2S)-2-[(10S,17E)-16-ethoxy-20-methoxy-6,8,10,12-tetramethyl-2,8,10,11,12,13-hexahydro-14H-5,3-(azenometheno)tripyrazolo[3,4-f:3′,4′-j:4″,3″-n][1,4]oxazacyclopentadecin-14-yl]propan-1-ol], the IC50 was determined as 2.97 nM in the assay with HCC827 cells, 25.5 nM with PC-9 cells and 27.2 nM with NCI-H1975 cells.
With `CCOc1nn([C@@H](C)CO)c2c1/C=C/c1n[nH]c3c(O)nc(cc13)-c1c(C)nn(C)c1O[C@@H](C)CN(C)C2` [Ex. 99, (10S,17E)-16-ethoxy-14-[(2S)-1-hydroxypropan-2-yl]-6,8,10,12-tetramethyl-2,10,11,12,13,14-hexahydro-8H-5,3-(azenometheno)tripyrazolo[3,4-f:3′,4′-j:4″,3″-n][1,4]oxazacyclopentadecin-20-ol], the IC50 with HCC827 cells amounted to 38.1 nM; in the assay with PC-9 cells, 351 nM; in the assay with NCI-H1975 cells, 338 nM.
For the compound `Cc1nn(C)c2c1-c1cc3c(n[nH]c3c(C)n1)/C=C/c1cnn([C@@H](C)CO)c1CN(C1CC1)C[C@H](C)O2` [Ex. 127, (2S)-2-[(10S,17E)-12-cyclopropyl-6,8,10,20-tetramethyl-2,8,10,11,12,13-hexahydro-14H-5,3-(azenometheno)tripyrazolo[3,4-f:3′,4′-j:4″,3″-n][1,4]oxazacyclopentadecin-14-yl]propan-1-ol], the IC50 in the assay on HCC827 cells came out at 0.37 nM; in the assay with PC-9 cells, 1.26 nM; in the assay on NCI-H1975 cells, 1.92 nM.
With `Cc1nn(C)c2c1-c1cc3c(n[nH]c3c(C)n1)/C=C/c1cnn([C@@H](C)CO)c1CN(C1CC1)[C@H](C)CO2` [Ex. 128, (2S)-2-[(11R,17E)-12-cyclopropyl-6,8,11,20-tetramethyl-2,8,10,11,12,13-hexahydro-14H-5,3-(azenometheno)tripyrazolo[3,4-f:3′,4′-j:4″,3″-n][1,4]oxazacyclopentadecin-14-yl]propan-1-ol], the IC50 was 3.32 nM in the assay on HCC827 cells, 17 nM in the assay on PC-9 cells and 56.8 nM in the assay with NCI-H1975 cells.
Regarding `CCOc1nn([C@@H](C)CO)c2c1/C=C/c1n[nH]c3cnc(cc13)-c1c(COC)nn(C)c1O[C@@H](C)CN(C)C2` [Ex. 130, (2S)-2-[(10S,17E)-16-ethoxy-6-(methoxymethyl)-8,10,12-trimethyl-2,8,10,11,12,13-hexahydro-14H-5,3-(azenometheno)tripyrazolo[3,4-f:3′,4′-j:4″,3″-n][1,4]oxazacyclopentadecin-14-yl]propan-1-ol], the IC50 with HCC827 cells was 0.75 nM; with PC-9 cells, 2.32 nM; in the assay on NCI-H1975 cells, 176 nM.
Take `CCOc1nn(C)c2c1/C=C/c1n[nH]c3c(C)nc(cc13)-c1c(C)nn(C)c1O[C@@H](C)CN(C(C)=O)C2` [Ex. 131, 1-[(10S,17E)-16-ethoxy-6,8,10,14,20-pentamethyl-2,8,10,11,13,14-hexahydro-12H-5,3-(azenometheno)tripyrazolo[3,4-f:3′,4′-j:4″,3″-n][1,4]oxazacyclopentadecin-12-yl]ethan-1-one]: the values for the IC50 in the assay on HCC827 cells, in the assay on PC-9 cells and in the assay with NCI-H1975 cells were 60.5 nM, 353 nM and 671 nM, respectively.
Take `CCOc1nn([C@@H](C)CO)c2c1/C=C/c1n[nH]c3c(C)nc(cc13)-c1c(C)nn(C)c1O[C@H](C)[C@@H](C)N(C)C2` [Ex. 132a, (2S)-2-[(11R,17E)-16-ethoxy-6,8,10,11,12,20-hexamethyl-2,8,10,11,12,13-hexahydro-14H-5,3-(azenometheno)tripyrazolo[3,4-f:3′,4′-j:4″,3″-n][1,4]oxazacyclopentadecin-14-yl]propan-1-ol]: the values for the concentration for half-maximal inhibition (IC50) with HCC827 cells, in the assay on PC-9 cells and with NCI-H1975 cells were 0.41 nM, 1.12 nM and 0.77 nM, respectively.
For the compound `CCOc1nn([C@@H](C)CO)c2c1/C=C/c1n[nH]c3c(C)nc(cc13)-c1c(C)nn(C)c1O[C@@H](C)[C@@H](C)N(C)C2` [Ex. 132b, (2S)-2-[(11R,17E)-16-ethoxy-6,8,10,11,12,20-hexamethyl-2,8,10,11,12,13-hexahydro-14H-5,3-(azenometheno)tripyrazolo[3,4-f:3′,4′-j:4″,3″-n][1,4]oxazacyclopentadecin-14-yl]propan-1-ol], the half-inhibitory concentration (IC50) was 0.29 nM in the assay with HCC827 cells, 0.54 nM in the assay on PC-9 cells and 0.7 nM in the assay on NCI-H1975 cells.
In the same order, the values of `Cc1nn(C)c2c1-c1cc3c(n[nH]c3c(C)n1)/C=C/c1cnn(CCO)c1CN(C1CC1)C[C@H](C)O2` [Ex. 133, 2-[(10S,17E)-12-cyclopropyl-6,8,10,20-tetramethyl-2,8,10,11,12,13-hexahydro-14H-5,3-(azenometheno)tripyrazolo[3,4-f:3′,4′-j:4″,3″-n][1,4]oxazacyclopentadecin-14-yl]ethan-1-ol] are 8.87 nM, 34.2 nM and 40.5 nM.
Take `CCOc1nn(C)c2c1/C=C/c1n[nH]c3c(C)nc(cc13)-c1c(C)nn(C)c1O[C@@H](C)CN(C(=O)CC)C2` [Ex. 135, 1-[(10S,17E)-16-ethoxy-6,8,10,14,20-pentamethyl-2,8,10,11,13,14-hexahydro-12H-5,3-(azenometheno)tripyrazolo[3,4-f:3′,4′-j:4″,3″-n][1,4]oxazacyclopentadecin-12-yl]propan-1-one]: the IC50 in the assay on HCC827 cells worked out at 73.8 nM; in the assay on PC-9 cells, 116 nM.
For the compound `CCOc1nn(C)c2c1/C=C/c1n[nH]c3c(C)nc(cc13)-c1c(C)nn(C)c1O[C@@H](C)CN(C(=O)C1CC1)C2` [Ex. 136, cyclopropyl[(10S,17E)-16-ethoxy-6,8,10,14,20-pentamethyl-2,8,10,11,13,14-hexahydro-12H-5,3-(azenometheno)tripyrazolo[3,4-f:3′,4′-j:4″,3″-n][1,4]oxazacyclopentadecin-12-yl]methanone], the IC50 in the assay on HCC827 cells was determined as 34.4 nM; with PC-9 cells, 67 nM; in the assay on NCI-H1975 cells, 266 nM.
For `CCOc1nn(C)c2c1/C=C/c1n[nH]c3c(C)nc(cc13)-c1c(C)nn(C)c1O[C@@H](C)CN(C(=O)C(C)C)C2` [Ex. 137, 1-[(10S,17E)-16-ethoxy-6,8,10,14,20-pentamethyl-2,8,10,11,13,14-hexahydro-12H-5,3-(azenometheno)tripyrazolo[3,4-f:3′,4′-j:4″,3″-n][1,4]oxazacyclopentadecin-12-yl]-2-methylpropan-1-one], the results for the IC50 with HCC827 cells and in the assay on PC-9 cells were 90.7 nM and 113 nM, respectively.
As for `COCc1nn(C)c2c1-c1cc3c(n[nH]c3c(C)n1)/C=C/c1cnn([C@@H](C)CO)c1CN(C1CC1)C[C@H](C)O2` [Ex. 139, (2S)-2-[(10S,17E)-12-cyclopropyl-6-(methoxymethyl)-8,10,20-trimethyl-2,8,10,11,12,13-hexahydro-14H-5,3-(azenometheno)tripyrazolo[3,4-f:3′,4′-j:4″,3″-n][1,4]oxazacyclopentadecin-14-yl]propan-1-ol], the half-inhibitory concentration (IC50) with HCC827 cells was 0.82 nM; in the assay with PC-9 cells it was 4.35 nM; with NCI-H1975 cells, 429 nM.
`COCc1nn(C)c2c1-c1cc3c(n[nH]c3c(C)n1)/C=C/c1cnn([C@@H](C)CO)c1CN(C1CC1)[C@H](C)CO2` [Ex. 140, (2S)-2-[(11R,17E)-12-cyclopropyl-6-(methoxymethyl)-8,11,20-trimethyl-2,8,10,11,12,13-hexahydro-14H-5,3-(azenometheno)tripyrazolo[3,4-f:3′,4′-j:4″,3″-n][1,4]oxazacyclopentadecin-14-yl]propan-1-ol]: the IC50 in the assay on HCC827 cells worked out at 6.1 nM; with PC-9 cells, 29.9 nM.
